This is an account of results in ChEMBL document CHEMBL1150535, “Acyclic NK-1 antagonists: 2-benzhydryl-2-aminoethyl ethers” (Bioorg Med Chem Lett, 1994).

For one assay, the target named is Substance-P receptor (Homo sapiens, UniProt P25103). In words: Binding affinity towards human Tachykinin receptor 1 expressed in CHO cells by the displacement of [125 I] substance P. Type of assay: cell-based.
Assay [1] concerns the target Voltage-gated L-type calcium channel (Homo sapiens, UniProt Q13936+Q13698+Q01668+O60840). Description: Antagonistic activity at L-type calcium channel by displacement of [3H]diltiazem and enhanced [3H]nitrendipine binding. It counts as protein assay.

Sequence of Substance-P receptor (P25103 whole entry): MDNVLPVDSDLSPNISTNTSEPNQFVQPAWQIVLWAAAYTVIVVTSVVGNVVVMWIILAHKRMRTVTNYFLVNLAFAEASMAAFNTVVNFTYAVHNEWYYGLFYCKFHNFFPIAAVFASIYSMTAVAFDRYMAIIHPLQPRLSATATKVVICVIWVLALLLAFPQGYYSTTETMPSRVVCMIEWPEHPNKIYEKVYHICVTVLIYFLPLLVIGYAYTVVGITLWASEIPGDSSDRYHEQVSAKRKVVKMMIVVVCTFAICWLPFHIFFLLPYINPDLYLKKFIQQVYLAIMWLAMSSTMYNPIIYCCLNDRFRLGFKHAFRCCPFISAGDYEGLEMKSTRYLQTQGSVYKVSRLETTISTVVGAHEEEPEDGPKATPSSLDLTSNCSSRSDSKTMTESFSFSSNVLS

Broadly, the IC50 is the concentration needed to halve the response being measured. At Substance-P receptor, `NC(COCc1cccc(Cl)c1)C(c1ccccc1)c1ccccc1` (stereo not given) yielded a half-maximal inhibitory concentration (IC50) of 75 nM.

In the case of `Cc1cc(C)cc(COCC(NCC2CC2)C(c2ccccc2)c2ccccc2)c1` (stereo not given), at Substance-P receptor, the 50% inhibitory concentration (IC50) stood at 93 nM.

At Substance-P receptor, `CNC(COCc1cc(C)cc(C)c1)C(c1ccccc1)c1ccccc1` (stereo not given) gave an IC50 of 6.8 nM.

`CCNC(COCc1cc(C)cc(C)c1)C(c1ccccc1)c1ccccc1` (stereo not given) registered an IC50 on Substance-P receptor of 12.7 nM.

In the case of `CC(=O)NC(COCc1cc(C)cc(C)c1)C(c1ccccc1)c1ccccc1` (stereo not given), the IC50 on Substance-P receptor turned out to be 21 nM.

On to `NC(COCc1cccc(I)c1)C(c1ccccc1)c1ccccc1` (stereo not given), for which the IC50 on Substance-P receptor was 77 nM.

Consider `Cc1ccc(C)c(COCC(N)C(c2ccccc2)c2ccccc2)c1` (stereo not given), for which the IC50 at Substance-P receptor stood at 150 nM.

For `Cc1cc(C)cc(COCC(NCC(N)=O)C(c2ccccc2)c2ccccc2)c1` (stereo not given), the values for the half-inhibitory concentration (IC50) (in assay [1]; on Substance-P receptor) were 5500 nM and 2.2 nM, respectively.

The compound `Cc1cc(C)cc(COCC(O)C(c2ccccc2)c2ccccc2)c1` (stereo not given) yielded a concentration for half-maximal inhibition (IC50) on Substance-P receptor of 17 nM.

At Substance-P receptor, `NC(COCc1cc(Br)cc(Br)c1)C(c1ccccc1)c1ccccc1` (stereo not given) gave an IC50 of 13.3 nM.

Regarding `COc1ccccc1CN[C@H]1C2CCN(CC2)[C@H]1C(c1ccccc1)c1ccccc1` [CP-96345], the IC50 in assay [1] was 240 nM.

For the compound `Cc1cc(Br)cc(COCC(N)C(c2ccccc2)c2ccccc2)c1` (stereo not given), the half-maximal inhibitory concentration (IC50) at Substance-P receptor stood at 9.7 nM.

`Cc1cc(C)cc(COCC(C(c2ccccc2)c2ccccc2)N(C)C)c1` (stereo not given): the half-inhibitory concentration (IC50) at Substance-P receptor worked out at 4.4 nM.

Turning to `NC(COCc1ccccc1)C(c1ccccc1)c1ccccc1` (stereo not given), the half-maximal inhibitory concentration (IC50) at Substance-P receptor was 367 nM.

`NC(COCc1cc(Cl)cc(Cl)c1)C(c1ccccc1)c1ccccc1` (stereo not given): on Substance-P receptor, the IC50 turned out to be 11.3 nM.

Consider `Cc1cc(C)cc(COC[C@@H](C(c2ccccc2)c2ccccc2)N(C)C)c1`, for which the IC50 at Substance-P receptor turned out to be 14 nM.

For the compound `Cc1cc(C)cc(COCC(NCc2ccccc2)C(c2ccccc2)c2ccccc2)c1` (stereo not given), on Substance-P receptor, the IC50 was determined as 82 nM.

The compound `Cc1cc(C)cc(COCC(NC=O)C(c2ccccc2)c2ccccc2)c1` (stereo not given) registered an IC50 at Substance-P receptor of 11 nM.

In turn, `NC(=O)CNC(COCc1cc(C(F)(F)F)cc(C(F)(F)F)c1)C(c1ccccc1)c1ccccc1` (stereo not given) returned a half-inhibitory concentration (IC50) on Substance-P receptor of 0.85 nM.

As to `Cc1cc(C)cc(COC[C@H](C(c2ccccc2)c2ccccc2)N(C)C)c1`, the IC50 in assay [1] was 980 nM; on Substance-P receptor it was 5.5 nM.

Consider `Cc1cc(C)cc(COCC(NC(C)C)C(c2ccccc2)c2ccccc2)c1` (stereo not given), for which the 50% inhibitory concentration (IC50) on Substance-P receptor amounted to 55 nM.

As to `NC(=O)CN[C@H](COCc1cc(C(F)(F)F)cc(C(F)(F)F)c1)C(c1ccccc1)c1ccccc1`, the IC50 in assay [1] amounted to 1670 nM; on Substance-P receptor it was 0.53 nM.
